From BindingDB's records for patent US12398118 (Beijing Tide Pharmaceutical, 2025)

Tests used:
[1] = biological target: Rho-associated protein kinase 2 (Homo sapiens, UniProt O75116); assay: Biological Assay
Method: Before the assay, the following working solutions as needed were formulated with corresponding reagents according to the instruction of the kinase detection kit: 1×kinase buffer, 5×STK-S2 substrate working solution (1.5 μM) and 5×ATP working solution (1.5 μM), 5×ROCK2 kinase working solution, 4×Streptavidin-XL665 working solution, and 4×STK-Ab-Cryptate 2 detection solution. Then the assay was performed according to the following procedure.A solution of a compound at a concentration of 10000 nM was prepared with the 1×kinase buffer containing 2.5% DMSO. Gradient dilution of the solution of the compound was performed with the kinase buffer containing DMSO, so as to obtain solutions of a test compound at 9 different concentrations. In addition to wells of test compounds, a positive well (containing all the reagents except the compound) and a negative well (containing all the reagents except the test compound and kinase) were set. Except for the control wells (positive and negative wells), a solution of a test compound (4 μL) was added to each of the reaction wells, and a solution of 2.5% DMSO was added to the control wells. Then the substrate ([…], i.e., 2 μL 5×STK-S2 substrate working solution) was added to each of the reaction wells. The 5×ROCK2 kinase working solution (2 μL, containing 1.4 ng ROCK2 kinase) was added to each of the reaction wells except for the negative well, the volume of which was made up with the 1×kinase buffer (2 μL). The 5×ATP working solution (2 μL) was added to each of the reaction wells, and the mixtures were incubated at room temperature for 2 hours. After the kinase reaction was complete, the 4×Streptavidin-XL665 working solution was added to each of the reaction wells, the solutions were mixed, followed by immediate addition of the 4×STK-Ab-Cryptate 2 detection solution (5 μL), and the mixtures were incubated at room temperature for 1 hour.

[2] = biological target: Rho-associated protein kinase 1 (Homo sapiens, UniProt Q13464); assay: Biological Assay
Rho-associated protein kinase 1, sequence (Q13464 whole entry): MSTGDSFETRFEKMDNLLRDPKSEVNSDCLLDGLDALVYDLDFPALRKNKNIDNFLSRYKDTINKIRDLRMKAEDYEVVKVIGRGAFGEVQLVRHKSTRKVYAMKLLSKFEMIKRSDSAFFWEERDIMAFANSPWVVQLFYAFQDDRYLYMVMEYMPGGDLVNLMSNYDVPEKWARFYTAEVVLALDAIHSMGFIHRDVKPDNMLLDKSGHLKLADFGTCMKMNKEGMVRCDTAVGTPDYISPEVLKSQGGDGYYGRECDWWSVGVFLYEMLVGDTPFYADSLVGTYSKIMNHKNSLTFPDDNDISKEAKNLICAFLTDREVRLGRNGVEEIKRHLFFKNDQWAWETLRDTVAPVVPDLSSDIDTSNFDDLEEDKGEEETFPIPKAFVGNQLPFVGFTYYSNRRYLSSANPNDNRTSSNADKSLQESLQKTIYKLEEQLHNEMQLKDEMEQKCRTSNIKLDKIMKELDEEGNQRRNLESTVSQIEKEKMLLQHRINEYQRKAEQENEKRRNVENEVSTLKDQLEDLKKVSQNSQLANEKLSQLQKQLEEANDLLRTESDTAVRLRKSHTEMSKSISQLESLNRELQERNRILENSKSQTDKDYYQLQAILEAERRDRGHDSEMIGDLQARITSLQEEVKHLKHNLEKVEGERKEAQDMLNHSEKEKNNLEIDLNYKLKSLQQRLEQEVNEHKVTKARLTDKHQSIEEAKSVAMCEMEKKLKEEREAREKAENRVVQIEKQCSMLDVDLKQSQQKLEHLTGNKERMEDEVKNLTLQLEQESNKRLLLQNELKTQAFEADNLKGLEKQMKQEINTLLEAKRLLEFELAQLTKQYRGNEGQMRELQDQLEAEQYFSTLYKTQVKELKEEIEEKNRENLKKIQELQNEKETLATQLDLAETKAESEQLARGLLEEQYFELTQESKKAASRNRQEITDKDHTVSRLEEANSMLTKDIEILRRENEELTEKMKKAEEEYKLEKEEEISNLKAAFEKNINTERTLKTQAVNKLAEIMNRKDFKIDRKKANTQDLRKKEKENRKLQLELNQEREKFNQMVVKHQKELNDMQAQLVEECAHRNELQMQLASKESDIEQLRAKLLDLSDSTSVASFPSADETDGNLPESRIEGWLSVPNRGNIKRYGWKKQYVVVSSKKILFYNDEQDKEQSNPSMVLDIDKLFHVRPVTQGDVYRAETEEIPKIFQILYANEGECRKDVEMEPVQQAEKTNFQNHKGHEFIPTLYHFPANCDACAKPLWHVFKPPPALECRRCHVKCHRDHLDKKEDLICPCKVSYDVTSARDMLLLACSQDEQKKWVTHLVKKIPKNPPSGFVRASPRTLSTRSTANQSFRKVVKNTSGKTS

Rho-associated protein kinase 2, sequence (O75116 whole entry): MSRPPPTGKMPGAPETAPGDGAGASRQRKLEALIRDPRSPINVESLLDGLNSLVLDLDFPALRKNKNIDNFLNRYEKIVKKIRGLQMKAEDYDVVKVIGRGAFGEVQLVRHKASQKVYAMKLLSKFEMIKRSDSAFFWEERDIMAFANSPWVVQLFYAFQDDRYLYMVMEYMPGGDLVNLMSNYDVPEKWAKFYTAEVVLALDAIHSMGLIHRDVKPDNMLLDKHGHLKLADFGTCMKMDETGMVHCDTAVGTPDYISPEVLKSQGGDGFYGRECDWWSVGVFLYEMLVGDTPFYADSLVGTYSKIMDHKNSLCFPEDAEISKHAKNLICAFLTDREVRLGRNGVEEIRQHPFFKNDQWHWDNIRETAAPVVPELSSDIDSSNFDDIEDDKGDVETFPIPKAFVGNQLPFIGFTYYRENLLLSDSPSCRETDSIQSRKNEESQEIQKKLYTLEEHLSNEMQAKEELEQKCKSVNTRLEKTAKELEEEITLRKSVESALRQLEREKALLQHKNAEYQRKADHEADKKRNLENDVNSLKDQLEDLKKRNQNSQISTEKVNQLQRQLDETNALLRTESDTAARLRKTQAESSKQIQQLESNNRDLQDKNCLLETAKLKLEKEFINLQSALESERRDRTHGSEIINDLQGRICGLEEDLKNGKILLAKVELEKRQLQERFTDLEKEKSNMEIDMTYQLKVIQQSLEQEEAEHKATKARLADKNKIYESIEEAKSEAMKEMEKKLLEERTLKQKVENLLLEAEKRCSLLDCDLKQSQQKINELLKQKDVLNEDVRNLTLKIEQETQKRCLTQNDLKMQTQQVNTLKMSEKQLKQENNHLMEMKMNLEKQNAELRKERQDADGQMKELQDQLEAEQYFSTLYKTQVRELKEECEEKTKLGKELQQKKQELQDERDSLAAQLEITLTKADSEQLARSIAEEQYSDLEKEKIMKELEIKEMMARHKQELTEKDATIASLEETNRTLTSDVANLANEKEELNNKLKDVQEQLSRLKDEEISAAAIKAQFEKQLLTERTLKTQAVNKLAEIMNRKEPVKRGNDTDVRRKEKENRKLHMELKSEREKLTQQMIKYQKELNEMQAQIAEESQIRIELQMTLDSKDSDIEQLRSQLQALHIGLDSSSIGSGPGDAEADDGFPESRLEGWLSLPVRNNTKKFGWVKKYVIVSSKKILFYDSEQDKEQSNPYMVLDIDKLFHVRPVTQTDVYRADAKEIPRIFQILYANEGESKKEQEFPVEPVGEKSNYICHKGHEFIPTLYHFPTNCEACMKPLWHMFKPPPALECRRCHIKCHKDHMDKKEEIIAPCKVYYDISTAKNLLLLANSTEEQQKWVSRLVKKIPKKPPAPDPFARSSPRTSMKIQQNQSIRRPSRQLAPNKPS

In the case of `CC(C)(C)OC(=O)N1CCc2sc(-c3ncc(F)c(Nc4ccc5c(=O)[nH]ccc5c4)n3)cc2C1` [US12398118, Compound C28], the IC50 [1] is reported as 6 nM and the IC50 [2] is reported as > 10000 nM.
In the case of `O=C(OC1CCC(F)(F)CC1)N1CCc2cc(-c3ncc(F)c(Nc4ccc5c(=O)[nH]ccc5c4)n3)ccc2C1` [US12398118, Compound C35], the IC50 [1] is reported as 93 nM and the IC50 [2] is reported as > 10000 nM.
`CC(OC(=O)N1CCc2sc(-c3ncc(F)c(Nc4ccc5c(c4)CCNC5=O)n3)cc2C1)C(F)(F)F` (stereo not drawn) [US12398118, Compound C43] gave an IC50 [1] of 71 nM.
`CC(C)(C)OC(=O)N1CCc2sc(-c3ncc(F)c(Nc4ccc5c(N)nccc5c4)n3)cc2C1` [US12398118, Compound C45] was tested, and the IC50 [1] was 491 nM and the IC50 [2] was > 10000 nM.
For `CC(C)(C)CC(=O)N1CCc2sc(-c3ncc(F)c(Nc4ccc5c(=O)[nH]ccc5c4)n3)cc2C1` [US12398118, Compound C52], the IC50 [1] was 28 nM and the IC50 [2] was > 10000 nM.
`O=C(OCC(F)(F)F)N1Cc2ccc(-c3ncc(F)c(Nc4ccc5c(=O)[nH]ccc5c4)n3)cc2C1` [US12398118, Compound C72] was tested, and the IC50 [1] was 24 nM and the IC50 [2] was > 10000 nM.
In the case of `O=C1NCCc2cc(Nc3nc(-c4cc5c(s4)CCN(C(=O)OCC(F)(F)F)C5)ncc3F)ccc21` [US12398118, Compound C75], the IC50 [1] is reported as 37 nM and the IC50 [2] is reported as > 10000 nM.
